Key:
[1] = biological target: T1, human ERK2 (Homo sapiens, UniProt P28482); experiment: LanthaScreen TR-FRET enzymatic assay, ERK2; conditions: IC50 values of ERK2 biochemical activity; 5 μM ATP, 400 nM ATF2-GFP substrate
T1 construct: recombinantly expressed as GST-tagged full-length protein purified from E. coli; GST; purchased Invitrogen PV3311; host or cells: E. coli
How it was run: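 IC50 values were fitted from percent of DMSO control using a 520/495 nm TR-FRET ratio with terbium anti-pATF2 (pThr71), read after an EDTA stop. The kinase reaction lasted one hour at room temperature, following 15-min compound pre-treatment. It contained 5 μM ATP, 400 nM ATF2-GFP substrate and 20 ng/ml in vitro-activated GST-ERK2.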

[2] = tested on: Colo205 cell line; experiment: Colo205 cell proliferation assay (MTT assay, WST-8 readout); type: cell-based; conditions: Homo sapiens; IC50 values of growth inhibition in Colo 205 cells; 72 hours
How it was run: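 Growth-inhibition IC50 was derived from WST-8 absorbance at 450 nm (2 h development) after 72 h compound exposure at 37° C. Exposure used final 50 μM–0.005 μM compound in 0.5% DMSO. Colo205 cells had been plated at 5,000/well in RPMI-1640 plus 10% FBS and allowed 24 h to attach.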

T1 sequence (P28482 whole entry): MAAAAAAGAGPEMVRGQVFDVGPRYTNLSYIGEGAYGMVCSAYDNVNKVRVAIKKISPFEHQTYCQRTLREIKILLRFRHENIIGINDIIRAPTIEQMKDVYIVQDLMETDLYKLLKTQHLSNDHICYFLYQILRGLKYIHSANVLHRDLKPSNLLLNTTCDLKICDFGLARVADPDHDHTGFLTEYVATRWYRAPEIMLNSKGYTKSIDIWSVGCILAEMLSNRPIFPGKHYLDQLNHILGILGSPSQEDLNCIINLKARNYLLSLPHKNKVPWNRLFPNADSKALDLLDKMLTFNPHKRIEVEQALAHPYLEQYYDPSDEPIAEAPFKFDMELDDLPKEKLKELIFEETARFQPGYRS

Structure (SMILES)	IC50 [1] [nM]	IC50 [2] [nM]
Cc1cc(-c2n[nH]c3ccc(-c4ccn(C(C)c5cc(F)cc(Br)c5)c(=O)c4)cc23)ccn1 (centres unmarked) [Example 74, 1-(1-(3-bromo-5-fluorophenyl)ethyl)-4-(3-(2-methylpyridin-4-yl)-1H-indazol-5-yl)pyridin-2(1H)-one]	< 10	500 to 1000
Cc1cc(-c2n[nH]c3ccc(-c4ccn(Cc5cccc(F)c5NS(C)(=O)=O)c(=O)c4)cc23)ccn1 [Example 83, N-(2-fluoro-6-((4-(3-(2-methylpyridin-4-yl)-1H-indazol-5-yl)-2-oxopyridin-1(2H)-yl)methyl)phenyl)methanesulfonamide]	< 10	1000 to 5000
Cn1cc(-c2n[nH]c3ccc(-c4ccn(Cc5ccc(F)c(Cl)c5)c(=O)c4)cc23)cn1 [Example 84, 1-(3-chloro-4-fluorobenzyl)-4-(3-(1-methyl-1H-pyrazol-4-yl)-1H-indazol-5-yl)pyridin-2(1H)-one]	< 10	≤ 500
Cn1cc(-c2n[nH]c3ccc(-c4ccn(Cc5cc(Br)ccc5F)c(=O)c4)cc23)cn1 [Example 85, 1-(5-bromo-2-fluorobenzyl)-4-(3-(1-methyl-1H-pyrazol-4-yl)-1H-indazol-5-yl)pyridin-2(1H)-one]	< 10	≤ 500
Cn1cc(-c2n[nH]c3ccc(-c4ccn(Cc5cc(F)cc(Br)c5)c(=O)c4)cc23)cn1 [Example 86, 1-(3-bromo-5-fluorobenzyl)-4-(3-(1-methyl-1H-pyrazol-4-yl)-1H-indazol-5-yl)pyridin-2(1H)-one]	< 10	≤ 500
Cc1cc(-c2n[nH]c3ccc(-c4ccn(Cc5cccc(F)c5NC(N)=O)c(=O)c4)cc23)ccn1 [Example 87, 1-(2-fluoro-6-((4-(3-(2-methylpyridin-4-yl)-1H-indazol-5-yl)-2-oxopyridin-1(2H)-yl)methyl)phenyl)urea]	< 10	> 5000
CC(=O)Nc1c(F)cccc1Cn1ccc(-c2ccc3[nH]nc(-c4ccnc(C)c4)c3c2)cc1=O [Example 88, N-(2-fluoro-6-((4-(3-(2-methylpyridin-4-yl)-1H-indazol-5-yl)-2-oxopyridin-1(2H)-yl)methyl)phenyl)acetamide]	< 10	1000 to 5000
Cn1cc(-c2n[nH]c3ccc(-c4ccn(Cc5cccc(Br)c5)c(=O)c4)cc23)cn1 [Example 90, 1-(3-bromobenzyl)-4-(3-(1-methyl-1H-pyrazol-4-yl)-1H-indazol-5-yl)pyridin-2(1H)-one]	< 10	≤ 500
Cn1cc(-c2n[nH]c3ccc(-c4ccn(Cc5cccc(I)c5)c(=O)c4)cc23)cn1 [Example 93, 1-(3-iodobenzyl)-4-(3-(1-methyl-1H-pyrazol-4-yl)-1H-indazol-5-yl)pyridin-2(1H)-one]	< 10	≤ 500
Cn1cc(-c2n[nH]c3ccc(-c4ccn(Cc5ccnc(C(F)(F)F)c5)c(=O)c4)cc23)cn1 [Example 95, 4-(3-(1-methyl-1H-pyrazol-4-yl)-1H-indazol-5-yl)-1-((2-(trifluoromethyl)pyridin-4-yl)methyl)pyridin-2(1H)-one]	< 10	1000 to 5000
CC(c1cc(F)cc(Br)c1)n1ccc(-c2ccc3[nH]nc(-c4cnn(C)c4)c3c2)cc1=O (centres unmarked) [Example 96, 1-(1-(3-bromo-5-fluorophenyl)ethyl)-4-(3-(1-methyl-1H-pyrazol-4-yl)-1H-indazol-5-yl)pyridin-2(1H)-one]	< 10	500 to 1000
CC(c1ccc(F)c(Cl)c1)n1ccc(-c2ccc3[nH]nc(-c4cnn(C)c4)c3c2)cc1=O (centres unmarked) [Example 97, 1-(1-(3-chloro-4-fluorophenyl)ethyl)-4-(3-(1-methyl-1H-pyrazol-4-yl)-1H-indazol-5-yl)pyridin-2(1H)-one]	10 to 50	1000 to 5000
CNCC(c1cccc(Cl)c1)n1ccc(-c2ccc3[nH]nc(-c4cnn(C)c4)c3c2)cc1=O (centres unmarked) [Example 98, 1-(1-(3-chlorophenyl)-2-(methylamino)ethyl)-4-(3-(1-methyl-1H-pyrazol-4-yl)-1H-indazol-5-yl)pyridin-2(1H)-one]	< 10	≤ 500
CC(C)Oc1ccc(-c2n[nH]c3ccc(-c4ccn(Cc5cc(F)cc(Br)c5)c(=O)c4)cc23)cn1 [Example 99, 1-(3-bromo-5-fluorobenzyl)-4-(3-(6-isopropoxypyridin-3-yl)-1H-indazol-5-yl)pyridin-2(1H)-one]	< 10	1000 to 5000
CC(C)Oc1ccc(-c2n[nH]c3ccc(-c4ccn([C@H](CO)c5ccc(Cl)c(F)c5)c(=O)c4)cc23)cn1 [Example 100]	10 to 50	1000 to 5000

Now from value to compound:

IC50 [1] [nM]	IC50 [2] [nM]	Structure (SMILES)
< 10	500 to 1000	Cc1cc(-c2n[nH]c3ccc(-c4ccn(Cc5cccc(C(F)(F)F)c5)c(=O)c4)cc23)ccn1 [Example 70, 4-(3-(2-methylpyridin-4-yl)-1H-indazol-5-yl)-1-(3-(trifluoromethyl)benzyl)pyridin-2(1H)-one]
< 10	1000 to 5000	Cc1cc(-c2n[nH]c3ccc(-c4ccn(Cc5cccc(C#N)c5)c(=O)c4)cc23)ccn1 [Example 71, 3-((4-(3-(2-methylpyridin-4-yl)-1H-indazol-5-yl)-2-oxopyridin-1(2H)-yl)methyl)benzonitrile]
< 10	500 to 1000	Cc1cc(-c2n[nH]c3ccc(-c4ccn(Cc5cc(F)ccc5F)c(=O)c4)cc23)ccn1 [Example 72, 1-(2,5-difluorobenzyl)-4-(3-(2-methylpyridin-4-yl)-1H-indazol-5-yl)pyridin-2(1H)-one]
< 10	500 to 1000	Cc1cc(-c2n[nH]c3ccc(-c4ccn(Cc5cc(F)cc(C(F)(F)F)c5)c(=O)c4)cc23)ccn1 [Example 73, 1-(3-fluoro-5-(trifluoromethyl)benzyl)-4-(3-(2-methylpyridin-4-yl)-1H-indazol-5-yl)pyridin-2(1H)-one]
< 10	500 to 1000	Cc1cc(-c2n[nH]c3ccc(-c4ccn(Cc5cccc(Br)c5F)c(=O)c4)cc23)ccn1 [Example 75, 1-(3-bromo-2-fluorobenzyl)-4-(3-(2-methylpyridin-4-yl)-1H-indazol-5-yl)pyridin-2(1H)-one]
< 10	500 to 1000	Cc1cc(-c2n[nH]c3ccc(-c4ccn(Cc5cc(F)c(F)c(F)c5)c(=O)c4)cc23)ccn1 [Example 76, 4-(3-(2-methylpyridin-4-yl)-1H-indazol-5-yl)-1-(3,4,5-trifluorobenzyl)pyridin-2(1H)-one]
< 10	≤ 500	Cc1cc(-c2n[nH]c3ccc(-c4ccn(Cc5ccc(F)c(C(F)(F)F)c5)c(=O)c4)cc23)ccn1 [Example 77, 1-(4-fluoro-3-(trifluoromethyl)benzyl)-4-(3-(2-methylpyridin-4-yl)-1H-indazol-5-yl)pyridin-2(1H)-one]
10 to 50	1000 to 5000	Cc1cc(-c2n[nH]c3ccc(-c4ccn(Cc5ccc(F)c(OC(F)(F)F)c5)c(=O)c4)cc23)ccn1 [Example 78, 1-(4-fluoro-3-(trifluoromethoxy)benzyl)-4-(3-(2-methylpyridin-4-yl)-1H-indazol-5-yl)pyridin-2(1H)-one]
< 10	500 to 1000	Cc1cc(-c2n[nH]c3ccc(-c4ccn(Cc5cc(F)cc(F)c5)c(=O)c4)cc23)ccn1 [Example 79, 1-(3,5-difluorobenzyl)-4-(3-(2-methylpyridin-4-yl)-1H-indazol-5-yl)pyridin-2(1H)-one]
< 10	1000 to 5000	Cc1cc(-c2n[nH]c3ccc(-c4ccn(Cc5cccc(C(F)(F)F)c5F)c(=O)c4)cc23)ccn1 [Example 80, 1-(2-fluoro-3-(trifluoromethyl)benzyl)-4-(3-(2-methylpyridin-4-yl)-1H-indazol-5-yl)pyridin-2(1H)-one]
< 10	≤ 500	Cc1cc(-c2n[nH]c3ccc(-c4ccn(Cc5cccc(F)c5F)c(=O)c4)cc23)ccn1 [Example 81, 1-(2,3-difluorobenzyl)-4-(3-(2-methylpyridin-4-yl)-1H-indazol-5-yl)pyridin-2(1H)-one]
< 10	500 to 1000	Cc1cc(-c2n[nH]c3ccc(-c4ccn(Cc5cccc(F)c5N)c(=O)c4)cc23)ccn1 [Example 82, 1-(2-amino-3-fluorobenzyl)-4-(3-(2-methylpyridin-4-yl)-1H-indazol-5-yl)pyridin-2(1H)-one]
< 10	≤ 500	Cc1cc(-c2n[nH]c3ccc(-c4ccn(Cc5ccnc(C(F)(F)F)c5)c(=O)c4)cc23)ccn1 [Example 89, 4-(3-(2-methylpyridin-4-yl)-1H-indazol-5-yl)-1-((2-(trifluoromethyl)pyridin-4-yl)methyl)pyridin-2(1H)-one]
< 10	500 to 1000	Cn1cc(-c2n[nH]c3ccc(-c4ccn(Cc5cccc(C(F)(F)F)c5)c(=O)c4)cc23)cn1 [Example 91, 4-(3-(1-methyl-1H-pyrazol-4-yl)-1H-indazol-5-yl)-1-(3-(trifluoromethyl)benzyl)pyridin-2(1H)-one]
< 10	≤ 500	Cn1cc(-c2n[nH]c3ccc(-c4ccn(Cc5cc(F)cc(C(F)(F)F)c5)c(=O)c4)cc23)cn1 [Example 92, 1-(3-fluoro-5-(trifluoromethyl)benzyl)-4-(3-(1-methyl-1H-pyrazol-4-yl)-1H-indazol-5-yl)pyridin-2(1H)-one]
< 10	1000 to 5000	Cc1cc(-c2n[nH]c3ccc(-c4ccn(Cc5ccc6cn[nH]c6c5)c(=O)c4)cc23)ccn1 [Example 94, 1-((1H-indazol-6-yl)methyl)-4-(3-(2-methylpyridin-4-yl)-1H-indazol-5-yl)pyridin-2(1H)-one]
